Test results: article PMC9995496, “A screen for MeCP2-TBL1 interaction inhibitors using a luminescence-based assay” (Scientific Reports, 2023)
Structures can show the parent of a compound that is named as a salt. Where two headings read alike, the source gives them in different places. Square brackets hold non-standard residues; d marks the D form. Peptide text beside a SMILES is read from it. * marks the point of attachment. Sta = CC(C)C[C@H](N)[C@@H](O)CC(=O)O; Isovaleryl = CC(C)CC(=O)*

System: PRKACA-PRKAR2A interaction (SmBiT-PRKACA / LgBiT-PRKAR2A), protein kinase A
Set-up: NanoLuc complementation counter-screen in cell extract, PRKACA with PRKAR2A, loss of luminescence, detects NanoLuc interference
Conditions: 0.5 h, 20 µM, inhibitor
[1] = counter-screen for NanoLuc interference, Inh (PKA)
[2] = counter-screen for NanoLuc interference

| Inh (PKA) [2] | Compound | also measured |
| --- | --- | --- |
| 28.05% | COc1cc(NC(=O)Nc2cccc(CNC(=O)O[C@H]3CCOC3)c2)ccc1-c1cnco1 [UM0142173:01, Merimepodib] |  |
| 40.51% | CCC(Sc1nnc2c(n1)[nH]c1ccccc12)C(=O)N1c2ccccc2Sc2ccccc21 (stereo not shown) [UM0142503:01, Inauhzin] |  |
| 4.362% | CC(C)c1nc(CN(C)C(=O)N[C@@H](CCN2CCOCC2)C(=O)N[C@H](CC[C@H](Cc2ccccc2)NC(=O)OCc2cncs2)Cc2ccccc2)cs1 [UM0141776:01, Cobicistat (GS-9350)] |  |
| 2.58% | Cn1cc(CNCC2CCN(c3ncc(C(=O)NO)cn3)CC2)c2ccccc21 [UM0141697:01, JNJ-26481585] |  |
| 6.658% | CC(=O)O[C@]1(C(C)=O)CC[C@H]2[C@@H]3C[C@H](C)C4=CC(=O)CC[C@]4(C)[C@H]3CC[C@@]21C [UM0142284:01, Medroxyprogesterone acetate] |  |
| 3.121% | Cc1ccnc2c1NC(=O)c1cccnc1N2C1CC1 [UM0142060:01, Nevirapine] |  |
| -0.7793% | CC(C)(C)C(=O)OCOP(=O)(COCCn1cnc2c(N)ncnc21)OCOC(=O)C(C)(C)C [UM0142452:01, Adefovir Dipivoxil] |  |
| 34.96% | CNC(=O)c1ccccc1Oc1nc(Nc2cc(OC)c(OC)c(OC)c2)ncc1Br [UM0142126:01, SBI-0206965] |  |
| 5.106% | Nc1ccc(/C=C/C(=O)NCc2cc3cc(-c4ccc(C(=O)N5CCC(F)(F)CC5)cc4)cc(-c4ccc(F)cc4)c3o2)cn1 [UM0142694:01, KPT-9274] |  |
| 41.78% | O=C(O)C[C@H](O)C[C@H](O)/C=C/c1c(C2CC2)nc2ccccc2c1-c1ccc(F)cc1 [UM0142066:01, Pitavastatin Calcium] |  |
| -0.3115% | Cc1cccc(CC(=O)N2CCc3c2ccc(-c2cn(C)c4ncnc(N)c24)c3F)n1 [UM0142431:01, GSK2656157] |  |
| 7.46% | Cc1ccc(Nc2c(F)cccc2Cl)c(CC(=O)O)c1 [UM0142264:01, Lumiracoxib] |  |
| 17.17% | Nc1ncc(-c2ccnc(Nc3ccncc3)n2)c(CC2CC2)n1 [UM0142752:01, PIK-III] |  |
| 0.9672% | O=C1c2c(O)cc(O)cc2O[C@H](c2ccc(O)c(O)c2)[C@H]1O [UM0142856:01, Taxifolin] |  |
| 3.147% | CCCC(=O)Nc1cccc(NC(=O)c2ccccc2Br)c1 [UM0141963:01, ML161] |  |
| 56.23% | O=C(/C=C/c1ccccc1)NC(NC(=S)Nc1ccc(Cl)cc1)C(Cl)(Cl)Cl (stereo not shown) [UM0141858:01, Sal 003] |  |
| 5.384% | O=C(O)c1cc2cccc([N+](=O)[O-])c2[nH]1 [UM0142492:01, CRT0044876] |  |
| 15.63% | O=C(O)Cn1nnc(-c2cc(N3CCC(Oc4cc(F)ccc4Br)CC3)no2)n1 [UM0141800:01, MK-8245] |  |
| 1.888% | CC(=O)O[C@H]1C[C@@]2(C)[C@@H](C[C@@H](O)[C@H]3[C@@]4(C)CC[C@@H](O)[C@@H](C)[C@@H]4CC[C@@]32C)/C1=C(\CCC=C(C)C)C(=O)O [UM0142840:01, Fusidic Acid (sodium salt)] |  |
| 40.39% | COc1cc(NC(=O)c2ccc(-c3ccc(Cl)cc3)o2)cc(OC)c1 [UM0142469:01, A-803467] |  |
| 5.354% | Cc1cc(-c2nc(-c3ccc(OC(F)(F)F)cc3)no2)nn1Cc1ccnc(N2CCN(C3CC3)CC2)c1 [UM0142175:01, BAY 87-2243] |  |
| 1.222% | CC(C)N(CCCNC(=O)Nc1ccc(C(C)(C)C)cc1)C[C@H]1O[C@@H](n2ccc3c(N)ncnc32)[C@H](O)[C@@H]1O [UM0141745:01, EPZ004777] |  |
| 36.3% | CCOC(=O)c1ccc(N2NC(=O)/C(=C/c3ccc([N+](=O)[O-])o3)C2=O)cc1 [UM0142276:01, PYR-41] |  |

Second part, the compound before the results:

| Compound | Inh (PKA) [2] | also measured |
| --- | --- | --- |
| C[C@H]1c2cccc(O)c2C(=O)C2=C(O)[C@]3(O)C(=O)C(C(N)=O)=C(O)[C@@H](N(C)C)[C@@H]3[C@@H](O)[C@@H]21 [UM0141681:01, Doxycycline hyclate] |  | Inh (PKA) [1]: 1.233% |
| O=C(/C=C/c1cccnc1)NCCCCC1CCN(C(=O)c2ccccc2)CC1 [UM0142102:01, FK 866 hydrochloride] |  | Inh (PKA) [1]: 0.5645% |
| COc1cc(N2CCOCC2)ccc1NC(=O)c1csc(-c2cccnc2)n1 [UM0141564:01, IRAK inhibitor 6] | 6.368% |  |
| CC(C)n1c(/C=C/[C@H](O)C[C@H](O)CC(=O)O)c(-c2ccc(F)cc2)c2ccccc21 [UM0141552:01, Fluvastatin] | 9.856% |  |
| Cc1cc2c(cc1S(N)(=O)=O)S(=O)(=O)CCC2 [UM0118751:03, Meticrane] | 1.197% |  |
| CN1CCCN(C(=O)c2cccc(-c3ccc(/C=C4/C(=O)Nc5ccc(Cl)cc54)o3)c2)CC1 [UM0141536:01, CX-6258] | 48.23% |  |
| Oc1ccc(-c2nc(-c3ccc(F)cc3)c(-c3ccncc3)[nH]2)cc1 [UM0141406:01, SB202190 (FHPI)] | 40.66% |  |
| O=C(Nc1ccc(OC(F)(F)F)cc1)c1sccc1NCc1ccnc2ccccc12 [UM0141486:01, OSI-930] | 39.72% |  |
| OCCN(CCO)c1nc(N2CCCCC2)c2nc(N(CCO)CCO)nc(N3CCCCC3)c2n1 [UM0118197:03, Dipyridamole] | 27.31% |  |
| Nc1ncnc2c1c(I)cn2[C@@H]1O[C@H](CO)[C@@H](O)[C@H]1O [UM0141507:01, 5-Iodotubercidin] | 18.13% |  |
| CNC(=O)[C@@H](NC(=O)[C@H](CC(C)C)[C@H](O)C(=O)NO)C(C)(C)C [UM0141678:01, Marimastat] | 0.03588% |  |
| CC1=C(CC(=O)O)c2cc(F)ccc2/C1=C\c1ccc([S+](C)[O-])cc1 (stereo not shown) [UM0134349:02, Sulindac] | 3.185% |  |
| NCC(=O)NCC(=O)N[C@@H](Cc1ccc(O)cc1)C(=O)N[C@@H](CCCN=C(N)N)C(=O)O [UM0141375:01, Papain Inhibitor] (H-GGYR-OH) | 1.556% |  |
| Cc1c(NC(=O)c2ccc(C(C)(C)C)cc2)cccc1-c1cn(C)c(=O)c(Nc2ccc(C(=O)N3CCOCC3)cc2)n1 [UM0141530:01, CGI-1746] | 10.06% |  |
| Nc1ncnc2n[nH]c(Nc3ccc(F)cc3)c12 [UM0127890:04, CGP 57380] | 5.777% |  |
| Nc1nnc(-c2cccc(Cl)c2Cl)c(N)n1 [UM0119947:03, Lamotrigine] | 0.956% |  |
| O=C(NCc1cccc(O)c1)Nc1nc(-c2ccncc2)cs1 [UM0141621:01, RKI-1447] | -11% |  |
| Fc1ccccc1-c1nc2ccn(Cc3ccc(-c4ccc(C(F)(F)F)cc4C(F)(F)F)nn3)cc-2n1 [UM0141636:01, Tegobuvir] | 1.649% |  |

| Compound | Inh (PKA) [2] | also measured |
| --- | --- | --- |
| COc1ccc2c(c1)c(CC(=O)N1CCOCC1)c(C)n2C(=O)c1ccc(Cl)cc1 [UM0119946:02, BML-190] | 40.28% |  |
| CN(C)CCC[C@@]1(c2ccc(F)cc2)OCc2cc(C#N)ccc21 [UM0121246:02, Escitalopram Oxalate] | -0.3205% |  |
| CN1CCN(c2ccc3nc(-c4c(N)c5c(F)cccc5[nH]c4=O)[nH]c3c2)CC1 [UM0142034:01, Dovitinib Dilactic acid] |  | Inh (PKA) [1]: 16.9% |
| Oc1ccc(Nc2nc(-c3ccc(Cl)cc3)cs2)cc1 [UM0013692:02, SKI II] | 14.65% |  |
| CC(C)(C)c1nc2c3cc[nH]c(=O)c3c3cc(F)ccc3c2[nH]1 [UM0127875:02, Pyridone 6] | 10.77% |  |
| CN(Cc1cccc(-c2ccncc2)c1)C(=O)Oc1ccc(-c2ccc(C(N)=O)cc2)cc1 [UM0142148:01, WWL 70] |  | Inh (PKA): 11.8% |
| O=C1NCCSc2c1sc1ccc(O)cc21 [UM0141570:01, kb NB 142-70] | 9.964% |  |
| C#CCN(C)CCCOc1ccc(Cl)cc1Cl [UM0118650:03, Clorgyline (hydrochloride)] | 10.49% |  |
| CS(=O)(=O)N1CCN(Cc2cc3nc(-c4cccc5[nH]ncc45)nc(N4CCOCC4)c3s2)CC1 [UM0141556:01, GDC-0941 dimethanesulfonate] |  | Inh (PKA) [1]: 7.081% |
| Nc1ccc(O)c(C(=O)O)c1 [UM0119062:03, Mesalamine] | 8.926% |  |
| CC(C)CC(=O)N[C@H](C(=O)N[C@H](C(=O)N[C@@H](CC(C)C)[C@@H](O)CC(=O)N[C@@H](C)C(=O)N[C@@H](CC(C)C)[C@@H](O)CC(=O)O)C(C)C)C(C)C [UM0118622:03, Pepstatin A] (Isovaleryl-VV[Sta]A[Sta]-OH) | 1.204% |  |
| CC[C@H](CO)Nc1nc(NCc2ccccc2)c2ncn(C(C)C)c2n1 [UM0127958:02, Roscovitine (Seliciclib,CYC202)] | 10.31% |  |
| O=C(/C=C/c1ccc(O)c(O)c1)c1ccc(O)cc1O [UM0133869:02, Butein] | 52.51% |  |
| Nc1[nH]nc2nnc(-c3c(-c4ccccc4)nn4ccccc34)cc12 [UM0127848:03, FR 180204] | 1.354% |  |
| C[C@H](NC(=O)Cc1cc(F)cc(F)c1)C(=O)N[C@@H]1C(=O)N(C)c2ccccc2-c2ccccc21 [UM0141666:01, YO-01027 (Dibenzazepine, DBZ)] | 4.42% |  |
| O=C1c2ccccc2C(=O)c2oc(-c3ccccc3)nc21 [UM0141630:01, SJB2-043] | 4.073% |  |
| O=c1[nH]c2ccc(Cl)cc2c(N[C@@H]2CN3CCC2CC3)c1-c1nc2ccccc2[nH]1 [UM0142025:01, CHIR-124] | 30.1% |  |
